Source: patent US20150216182A1, “COMPOSITIONS AND METHODS OF THE ATTRACTION AND REPULSION OF INSECTS” (Olfactor Laboratories, Inc., priority 2012, published 2015)

What was measured:
larvae = test: larvicidal activity assay; format: in vivo; conditions: 24 hour exposure, dead larvae / total larvae; for % Lethality at 100 ppm / pest or weed control at 100 ppm: 100 ppm compound; for % Lethality with 0.25% compound conc. / pest or weed control at 0.25 %: 0.25% compound; for pest or weed control at 0.25 %: read-out: % Lethality with 0.25% compound conc.; for pest or weed control at 100 ppm: read-out: % Lethality at 100 ppm
Protocol: A 6-well plate (Corning Life Sciences, Tewksbury, Mass.) is used to test a compound's larvicidal activity. […] After a 24 hour exposure, the number of dead larvae are counted and recorded.
The results are presented in Table 17 as % lethality (the number of dead larvae divided by the total number of larvae).

cpA neurons [1] = test: extracellular single-sensillum electrophysiology: inhibition of CO2-responsive (cpA) neuronal activity; conditions: for Class: Table 10, single compounds, percent reduction in cpA activity compared to baseline; for Class (inhibitor class of the individual component): Inh = inhibitor
[2] = tested on: bed bugs (Cimex lectularius); test: bed bug repellency assay; format: in vivo; conditions: for % Rep (bed bug repellency): compound or combination on filter paper harborage, ten bed bugs
Protocol: Compounds and combinations of compounds of the present invention were assayed for their ability to repel bed bugs (Cimex lectularius) using a bed bug repellency assay. This assay takes advantage of the bed bug's natural tendency to seek harborage. Two petri dishes were obtained and the inner areas of each were sanded down (leaving the perimeter smooth.) Talc was applied on the perimeter and on the inside walls of the petri dishes with a small paint brush to prevent bed bugs from escaping. A cut off top portion of a solo bathroom cup was placed upside down in the center of one petri dish. A large plastic secondary container was gathered and a paper towel was laid down inside the bottom. The petri dish was then placed inside and ten bed bugs were placed inside the cut off portion of the solo cup. Next, two pieces of filter paper were cut down the middle to yield 4 equally sized halves. 3 pieces were placed inside a glass dish ([…]) and the remaining piece was placed in a separate dish. All 4 pieces were folded down the middle to create a “tent” or “harborage” when laid such that the folded crease faced up. 100 microliters of isopropyl alcohol was pipetted into 3 pieces of filter paper (all housed in the first glass dish.) In a separate 4 ml vial, 90 microliters of isopropyl alcohol was combined and vortexed with 10 microliters of the compound or compound combination being tested. 100 microliters of this solution [comprising a total of 100 mg of compound(s)] was pipetted onto the filter paper in the separate dish. All filter papers were then allowed to dry. Once dry, experiments were conducted first with two filter paper halves comprising only the isopropyl alcohol (control experiment) and then with the remaining filter paper halves [one with only isopropyl alcohol and one comprising the test compound(s).] Filter paper halves were placed on opposing sides of experimental petri dishes and bed bugs were allowed to move freely within the dishes for 5 minutes. Movement of bed bugs beneath each filter paper tent was recorded. […] In the Table, “Rep” refers to repellency and “Cmpd” refers to compound.

female mosquitoes [3] = conditions: single compound, female mosquitoes, two hours; for % mortality with 0.2 mg/ml: 0.2 mg/ml on filter paper; for % mortality with 2 mg/ml: 2 mg/ml on filter paper
cpA neurons [4] = test: extracellular single-sensillum electrophysiology: activation of cpA neuronal activity; conditions: for Class: Table 6, single compounds, increase over baseline cpA neuronal activity
female mosquitoes [5] = test: whole plant or invertebrate; conditions: 2 h; for mortality at 200 µg/mL: read-out: % mortality with 0.2 mg/ml; for mortality at 2000 µg/mL: read-out: % mortality with 2 mg/ml
[6] = Table 13, single component alone
[7] = Table 16, single component alone

Row | Compound | % Lethality with 0.25% compound conc. (larvae) [% lethal] | % Lethality at 100 ppm (larvae) [% lethal] | Class (cpA neurons [1]) | Class (inhibitor class of the individual component) (cpA neurons [1]; [6]) | % Rep (bed bug repellency) [2] [%] | % mortality with 0.2 mg/ml (female mosquitoes [3]) [%] | % mortality with 2 mg/ml (female mosquitoes [3]) [%] | pest or weed control at 0.25 % (larvae) [%] | pest or weed control at 100 ppm (larvae) [%] | mortality at 200 µg/mL (female mosquitoes [5]) [%] | mortality at 2000 µg/mL (female mosquitoes [5]) [%] | further results
1 | 2-methoxy-3(5or6)isopropylpyrazine [OLI0072] | 100 | 0 | Moderate Inhibitor (moderate inhibitors (reducing activity by 40-60%)) | Mod | 100 | – | – | – | – | – | – | Class (inhibitor class of the individual component) (cpA neurons [1]; [7]): Mod; inhibitor class of single compound (cpA neurons [1]): moderate inhibitor (40-60% reduction in neuronal activity as compared to baseline activity of the neuron)
2 | methoxy cinnamic aldehyde [OLI0112] | 100 | 0 | – | – | 23 | 0 | 100 | – | – | – | – | –
3 | CCCCCCC/C=C/C=O [OLI0077, trans-2-decenal] | – | – | Moderate Inhibitor (moderate inhibitors (reducing activity by 40-60%)) | Mod | 72 | – | – | – | – | – | – | –
4 | C/C=C(\C)C=O [OLI0013, trans-2-methyl-2-butenal] | 72 | 0 | – | – | – | 0 | 0 | – | – | – | – | Class (cpA neurons [4]): Strong Activator (strong activators yield an increase in activity that is >60 spk/sec over baseline neuronal activity)
5 | CCCCCCC(=O)OC [OLI0091, methyl heptanoate] | – | – | Mild Inhibitor (mild inhibitors (reducing activity by 20-40%)) | – | 20 | – | – | 72 | 0 | 0 | 0 | Comp A Class (cpA neurons [4]; Table 9, component A tested individually): Mild Inh (mild inhibitors (reducing activity by 20-40%))
6 | CCc1nccnc1CC [OLI0068, 2,3-diethylpyrazine] | – | – | Strong Inhibitor (strong inhibitors (reducing activity >60%)) | – | 24 | – | – | 100 | 0 | 0 | 0 | Class (inhibitor class of the individual component) (cpA neurons [1]; [7]): Strng
7 | CCc1nccnc1C [OLI0069, 2-ethyl-3-methylpyrazine] | – | – | Strong Inhibitor (strong inhibitors (reducing activity >60%)) | – | 10 | – | – | 100 | 0 | 0 | 0 | –
8 | 2-ethyl-5(6)-methylpyrazine [OLI0032] | – | – | – | – | – | 0 | 0 | – | – | – | – | Class (cpA neurons [4]): Mild Activator (mild activators yield an increase in neuronal activity that is between 20 and 40 spk/sec over baseline neuronal activity)
9 | CC1=C2CCC(C)CC2OC1=O (centres unmarked) [OLI0111, Menthalactone] | 100 | 33 | – | – | 13 | 0 | 100 | – | – | – | – | –
10 | CCc1nccnc1OC [OLI0071, 2-ethyl-3-methoxypyrazine] | – | – | Moderate Inhibitor (moderate inhibitors (reducing activity by 40-60%)) | Mod | 29 | – | – | 100 | 0 | 0 | 0 | Class (inhibitor class of the individual component) (cpA neurons [1]; [7]): Mod; inhibitor class of single compound (cpA neurons [1]): moderate inhibitor (40-60% reduction in neuronal activity as compared to baseline activity of the neuron)
11 | CCc1ncc(C)nc1CC [OLI0067, 2,3-diethyl-5-methylpyrazine] | – | – | Strong Inhibitor (strong inhibitors (reducing activity >60%)) | – | 100 | – | – | 100 | 0 | 0 | 0 | –
12 | CCCCCC(=O)CC [OLI0075, octanone-3] | 100 | 50 | Moderate Inhibitor (moderate inhibitors (reducing activity by 40-60%)) | Mod | – | 0 | 0 | – | – | – | – | –
13 | CCCCCC(C)=O [OLI0092, methylamylketone] | – | – | Mild Inhibitor (mild inhibitors (reducing activity by 20-40%)) | – | 8 | – | – | 73 | 32 | 0 | 0 | Comp B Class (cpA neurons [4]; Table 9, component B tested individually): Mild Inh (mild inhibitors (reducing activity by 20-40%))
14 | COC(/C=C/c1ccccc1)OC [OLI0106, cinnamic aldehyde dimethyl acetal] | 100 | 10 | – | – | 90 | 0 | 100 | – | – | – | – | –
15 | C=CCc1ccc(O)c(OC)c1 [OLI0102, Eugenol] | – | – | – | Mild | 100 | – | – | 100 | 25 | 0 | 100 | Class (inhibitor class of the individual component) (cpA neurons [1]; [7]): Mild; ability to repel bed bugs ([2]; 100 microliters solution on filter paper tent, 5 minutes): surprisingly strong ability to repel bed bugs
16 | Cc1ccc(C=O)o1 [OLI0006, 5-methyl furfural] | – | – | – | – | 47 | – | – | 100 | 0 | 0 | 0 | Class (cpA neurons [4]): Strong Activator (strong activators yield an increase in activity that is >60 spk/sec over baseline neuronal activity)
